Data from US10618916B2, “Heterocyclic compounds as immunomodulators” (Incyte Corporation, priority 2018, dated 2020).

Assays:
[1] = test system: PD-L1 aAPC/CHO-K1 cells and Jurkat-PD-1-NFAT effector cells; assay: Nuclear factor of activated T-cells (NFAT) assay; type: cell-based; conditions: Cricetulus griseus, CHO-K1
Protocol: Example C. Nuclear Factor of Activated T-Cells (NFAT) Assay
PD-L1 aAPC/CHO-K1 cells (Promega) were maintained in F-12 medium with addition of 10% FBS, 200 μg/ml Hygromycin B, 250 μg/ml Geneticin (G418). Jurkat-PD-1-NFAT effector cells (Promega) were cultured in RPMI 1640 medium supplemented with 10% FBS, 100 μg/ml Hygromycin B, 500 μg/ml G418. The culture media of PD-L1 aAPC/CHO-K1 cells were first replaced with assay medium (RPMI1640 medium with 1% FBS). The PD-L1 aAPC/CHO-K1 cells were then added in a white 384-well white clear bottom assay plate (CELLCOAT® Tissue Culture Plates, Greiner Bio-One) at 8000 per well in 10 μL assay medium. Test compounds were prepared by serial dilution in DMSO and 0.8 μL test compounds in DMSO were first transferred to the 384 REMP plate well (Thermofisher) by PlateMate Plus (Thermofisher) followed with addition of 50 μL plating medium. 5 μL compounds in the assay medium were transferred to the cells with 0.4% DMSO in the final assay at 2 μM. After removing the culture media, 10,000 Jurkat-PD-1-NFAT effector cells in 5 μL assay medium was dispensed into each well. The assay plate was incubated at 37° C., 5% CO2 for 24 hours. After the assay plate was equilibrated to room temp for 15 minutes, 20 µL/well of Bio-Glo™ reagent (Promega) were added. After 8 minutes incubation at room temperature, luminescence was read at with Pherastar microplate reader (BMG Labtech). The fold of induction (FOI) was calculated based on the ratio of luminescence normalized to the DMSO wells within each assay plate. The maximum percentage of induction was reported based on the ratio between the highest FOI of each compound and the maximum FOI of control compound within each assay plate. Wells with DMSO were served as the negative controls and wells containing control compound with the highest FOI were used as positive controls. EC50 determination was performed by fitting the curve of percent control activity versus the log of the compound concentration using the GraphPad Prism 6.0 software.

[2] = biological target: PD-1/PD-L1 protein/protein interaction (recombinant human PD-L1 and human PD-1) (Homo sapiens (Human), UniProt Q9NZQ7); assay: Homogeneous Time-Resolved Fluorescence (HTRF) PD-1/PD-L1 binding assay
PD-1/PD-L1 protein/protein interaction (recombinant human PD-L1 and human PD-1), sequence (Q9NZQ7 19-238): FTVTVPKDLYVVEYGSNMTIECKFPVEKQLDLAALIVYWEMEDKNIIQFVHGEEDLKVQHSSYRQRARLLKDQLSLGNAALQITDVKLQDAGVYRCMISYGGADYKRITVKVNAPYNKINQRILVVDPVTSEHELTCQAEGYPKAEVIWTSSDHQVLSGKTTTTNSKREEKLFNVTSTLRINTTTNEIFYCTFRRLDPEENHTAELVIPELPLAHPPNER
Protocol: Example A. Homogeneous Time-Resolved Fluorescence (HTRF) PD-1/PD-L1 Binding Assay
The assays were conducted in a standard black 384-well polystyrene plate with a final volume of 20 μL. Inhibitors were first serially diluted in DMSO and then added to the plate wells before the addition of other reaction components. The final concentration of DMSO in the assay was 1%. The assays were carried out at 25° C. in the PBS buffer (pH 7.4) with 0.05% Tween-20 and 0.1% BSA. Recombinant human PD-L1 protein (19-238) with a His-tag at the C-terminus was purchased from AcroBiosystems (PD1-H5229). Recombinant human PD-1 protein (25-167) with Fc tag at the C-terminus was also purchased from AcroBiosystems (PD1-H5257). PD-L1 and PD-1 proteins were diluted in the assay buffer and 10 μL was added to the plate well. Plates were centrifuged and proteins were preincubated with inhibitors for 40 minutes. The incubation was followed by the addition of 10 μL of HTRF detection buffer supplemented with Europium cryptate-labeled anti-human IgG (PerkinElmer-AD0212) specific for Fc and anti-His antibody conjugated to SureLight®-Allophycocyanin (APC, PerkinElmer-AD0059H). After centrifugation, the plate was incubated at 25° C. for 60 min. before reading on a PHERAstar FS plate reader (665 nm/620 nm ratio). Final concentrations in the assay were—3 nM PD1, 10 nM PD-L1, 1 nM europium anti-human IgG and 20 nM anti-His-Allophycocyanin. IC50 determination was performed by fitting the curve of percent control activity versus the log of the inhibitor concentration using the GraphPad Prism 5.0 software.

[3] = test system: U2OS/PD-L1 cells and Jurkat-PD-1-SHP cells; assay: Src homology region 2 domain-containing phosphatase (SHP) assay; type: cell-based; conditions: Homo sapiens, U2OS
Protocol: Example B. Src Homology Region 2 Domain-Containing Phosphatase (SHP) Assay
U2OS/PD-L1 cells (DiscoveRx Corporation) were maintained in McCoy's 5A medium with addition of 10% FBS, 0.25 μg/ml Puromycin. After removing the culture media, the cell medium was replaced with assay medium (RPMI1640 medium with 1% FBS). The U2OS/PD-L1 cells were then added in 384-well black clear bottom assay plate (CELLCOAT® Tissue Culture Plates, Greiner Bio-One) at 5000 cells per well in 20 μL assay medium. Test compounds were prepared by serial dilution in DMSO and 125 nL compound were first transferred to the 384 REMP plate well (Thermofisher) by ECHO liquid handler (Labcyte) followed with addition of 27.5 μL assay medium. 5 μL/well compounds in the assay medium were transferred to the cell plate with 0.05% DMSO in the final assay at […]. Jurkat-PD-1-SHP cells (DiscoveRx Corporation) were cultured in RPMI1640 medium supplemented with 10% FBS, 250 μg/ml Hygromycin B, 500 μg/ml G418. After the replacement of culture media with assay medium, 5,000 Jurkat-PD-1-SHP cells in 20 μL were dispensed into each well. The assay plate was incubated at 37° C., 5% CO2 for 2 hours before 2.5 μL PathHunter reagent 1 (DiscoveRx Corporation) were added to each well. The assay plate was shaken for 1 min at 350 rpm in the dark followed with addition of 10 μL PathHunter reagent 2 (DiscoveRx Corporation). Chemiluminescent signal was recorded with TopCount reader (Perkin Elmer) after incubation at room temperature for 1 hour. Wells with DMSO were served as the positive controls and wells containing no cells were used as negative controls. IC50 determination was performed by fitting the curve of percentage of control activity versus the log of the compound concentration using the GraphPad Prism 6.0 software.

Q: How did the EC50 [1] turn out when Cn1c(C(=O)Nc2cccc(-c3cccc(NC(=O)c4nc5c(n4C)CCN(C4CCOCC4)C5)c3C#N)c2Cl)nc2c1CCN(CCC13CCC(C(=O)O)(CC1)C3)C2 [Example 47, 4-(2-(2-((2-chloro-2′-cyano-3′-(1-methyl-5-(tetrahydro-2H-pyran-4-yl)-4,5,6,7-tetrahydro-1H-imidazo[4,5-c]pyridine-2-carboxamido)-[1,1′-biphenyl]-3-yl)carbamoyl)-1-methyl-1,4,6,7-tetrahydro-5H-imidazo[4,5-c]pyridin-5-yl)ethyl)bicyclo[2.2.1]heptane-1-carboxylic acid] was run?
A: 10 to 100 nM

Q: And the IC50 [2]?
A: ≤ 5 nM

Q: What does the source list for Cc1c(NC(=O)c2nc3c(n2C)CCNC3)cccc1-c1cccc(NC(=O)c2nc3c(n2C)CCN(CCC24CCC(C(=O)O)(CC2)C4)C3)c1C [Example 53, 4-(2-(2-((2,2′-dimethyl-3′-(1-methyl-4,5,6,7-tetrahydro-1H-imidazo[4,5-c]pyridine-2-carboxamido)-[1,1′-biphenyl]-3-yl)carbamoyl)-1-methyl-1,4,6,7-tetrahydro-5H-imidazo[4,5-c]pyridin-5-yl)ethyl)bicyclo[2.2.1]heptane-1-carboxylic Acid]?
A: EC50 [1]: 10 to 100 nM; IC50 [2]: ≤ 5 nM; IC50 [3]: ≤ 10 nM

Q: Cn1c(C(=O)Nc2cccc(-c3cccc(NC(=O)c4nc5c(n4C)CCN(C4CCC4)C5)c3Cl)c2Cl)nc2c1CCN(CCC13CCC(C(=O)O)(CC1)C3)C2 [Example 6, 4-(2-(2-((2,2′-dichloro-3′-(5-cyclobutyl-1-methyl-4,5,6,7-tetrahydro-1H-imidazo[4,5-c]pyridine-2-carboxamido)-[1,1′-biphenyl]-3-yl)carbamoyl)-1-methyl-1,4,6,7-tetrahydro-5H-imidazo[4,5-c]pyridin-5-yl)ethyl)bicyclo[2.2.1]heptane-1-carboxylic acid] was tested. Which EC50 [1] did it give?
A: 10 to 100 nM

Q: And the IC50 [2]?
A: ≤ 5 nM

Q: What about the IC50 [3] of the same molecule?
A: ≤ 10 nM

Q: How did the EC50 [1] turn out when CN1CCc2c(nc(C(=O)Nc3cccc(-c4cccc(NC(=O)c5nc6c(n5C)CCN(CCC57CCC(C(=O)O)(CC5)C7)C6)c4Cl)c3C#N)n2C)C1 [Example 48, 4-(2-(2-((2-chloro-2′-cyano-3′-(1,5-dimethyl-4,5,6,7-tetrahydro-1H-imidazo[4,5-c]pyridine-2-carboxamido)-[1,1′-biphenyl]-3-yl)carbamoyl)-1-methyl-1,4,6,7-tetrahydro-5H-imidazo[4,5-c]pyridin-5-yl)ethyl)bicyclo[2.2.1]heptane-1-carboxylic acid] was run?
A: 10 to 100 nM

Q: What about the IC50 [2] of the same molecule?
A: ≤ 5 nM

Q: What about the IC50 [3] of the same molecule?
A: ≤ 10 nM

Q: Which results are given for CCN1CCc2c(nc(C(=O)Nc3cccc(-c4cccc(NC(=O)c5nc6c(n5C)CCN(CCC57CCC(C(=O)O)(CC5)C7)C6)c4Cl)c3Cl)n2C)C1 [Example 4, 4-(2-(2-((2,2′-dichloro-3′-(5-ethyl-1-methyl-4,5,6,7-tetrahydro-1H-imidazo[4,5-c]pyridine-2-carboxamido)-[1,1′-biphenyl]-3-yl)carbamoyl)-1-methyl-1,4,6,7-tetrahydro-5H-imidazo[4,5-c]pyridin-5-yl)ethyl)bicyclo[2.2.1]heptane-1-carboxylic acid]?
A: EC50 [1]: 10 to 100 nM; IC50 [2]: ≤ 5 nM; IC50 [3]: ≤ 10 nM

Q: For Cn1c(C(=O)Nc2cccc(-c3cccc(NC(=O)c4nc5c(n4C)CCNC5)c3C#N)c2Cl)nc2c1CCN(CCC13CCC(C(=O)O)(CC1)C3)C2 [Example 46, 4-(2-(2-((2-chloro-2′-cyano-3′-(1-methyl-4,5,6,7-tetrahydro-1H-imidazo[4,5-c]pyridine-2-carboxamido)-[1,1′-biphenyl]-3-yl)carbamoyl)-1-methyl-1,4,6,7-tetrahydro-5H-imidazo[4,5-c]pyridin-5-yl)ethyl)bicyclo[2.2.1]heptane-1-carboxylic Acid], which EC50 [1] is on record?
A: 10 to 100 nM

Q: What about the IC50 [2] of the same molecule?
A: ≤ 5 nM

Q: And the IC50 [3]?
A: ≤ 10 nM

Q: Which EC50 [1] does the source give for CC(C)N1CCc2c(nc(C(=O)Nc3cccc(-c4cccc(NC(=O)c5nc6c(n5C)CCN(CCC57CCC(C(=O)O)(CC5)C7)C6)c4Cl)c3Cl)n2C)C1 [Example 5, 4-(2-(2-((2,2′-dichloro-3′-(5-isopropyl-1-methyl-4,5,6,7-tetrahydro-1H-imidazo[4,5-c]pyridine-2-carboxamido)-[1,1′-biphenyl]-3-yl)carbamoyl)-1-methyl-1,4,6,7-tetrahydro-5H-imidazo[4,5-c]pyridin-5-yl)ethyl)bicyclo[2.2.1]heptane-1-carboxylic acid] here?
A: ≤ 10 nM

Q: What about the IC50 [2] of the same molecule?
A: ≤ 5 nM

Q: What about the IC50 [3] of the same molecule?
A: ≤ 10 nM

Q: With Cc1c(NC(=O)c2nc3c(n2C)CCN(CCC24CCC(C(=O)O)(CC2)C4)C3)cccc1-c1cccc(NC(=O)c2nc3c(n2C)CCN(C)C3)c1Cl [Example 39, 4-(2-(2-((2′-chloro-3′-(1,5-dimethyl-4,5,6,7-tetrahydro-1H-imidazo[4,5-c]pyridine-2-carboxamido)-2-methyl-[1,1′-biphenyl]-3-yl)carbamoyl)-1-methyl-1,4,6,7-tetrahydro-5H-imidazo[4,5-c]pyridin-5-yl)ethyl)bicyclo[2.2.1]heptane-1-carboxylic acid] as the molecule, how does the EC50 [1] read?
A: 10 to 100 nM

Q: And the IC50 [2]?
A: ≤ 5 nM

Q: What about the IC50 [3] of the same molecule?
A: ≤ 10 nM

Q: Which EC50 [1] does the source give for Cn1c(C(=O)Nc2cccc(-c3cccc(NC(=O)c4nc5c(n4C)CCN(CCO)C5)c3C#N)c2Cl)nc2c1CCN(CCC13CCC(C(=O)O)(CC1)C3)C2 [Example 50, 4-(2-(2-((2-chloro-2′-cyano-3′-(5-(2-hydroxyethyl)-1-methyl-4,5,6,7-tetrahydro-1H-imidazo[4,5-c]pyridine-2-carboxamido)-[1,1′-biphenyl]-3-yl)carbamoyl)-1-methyl-1,4,6,7-tetrahydro-5H-imidazo[4,5-c]pyridin-5-yl)ethyl)bicyclo[2.2.1]heptane-1-carboxylic acid] here?
A: 10 to 100 nM

Q: And the IC50 [2]?
A: ≤ 5 nM

Q: What does the source list for C[C@@H](O)CN1CCc2c(nc(C(=O)Nc3cccc(-c4cccc(NC(=O)c5nc6c(n5C)CCN(CCC57CCC(C(=O)O)(CC5)C7)C6)c4Cl)c3C#N)n2C)C1 [Example 49, (R)-4-(2-(2-((2-chloro-2′-cyano-3′-(5-(2-hydroxypropyl)-1-methyl-4,5,6,7-tetrahydro-1H-imidazo[4,5-c]pyridine-2-carboxamido)-[1,1′-biphenyl]-3-yl)carbamoyl)-1-methyl-1,4,6,7-tetrahydro-5H-imidazo[4,5-c]pyridin-5-yl)ethyl)bicyclo[2.2.1]heptane-1-carboxylic Acid]?
A: EC50 [1]: 10 to 100 nM; IC50 [2]: ≤ 5 nM
